Here are results for one compound from ChEMBL document CHEMBL5584243, “Discovery of JNJ-74856665: A Novel Isoquinolinone DHODH Inhibitor for the Treatment of AML” (J Med Chem, 2024).

Data set [1] deals with MOLM-13. Put plainly: Antitumor activity against human MOLM-13 cells xenografted in NSG mouse assessed as tumor growth inhibition at po administrated for 21 days. It counts as functional, organism-based. Particulars: time 21.0 day. Background: A xenograft is tissue or cells of one species grown in another, often human tumour cells in immunodeficient mice.
Data set [2] relates to MOLM-13. Put plainly: Antiproliferative activity against human MOLM-13 cells assessed as inhibition of cell growth incubated for 72 hrs by CellTiter-Glo assay. The format is functional, cell-based. The settings on record: MOLM-13, 72 h.
Data set [3] in a line: Passive permeability across apical to basolateral side in dog MDCK-MDR1 cells. The format is ADME, cell-based, Canis lupus familiaris.
A short description of data set [4]: Lipophilicity, logD of compound. It counts as physicochemical. The settings on record: octanol/water.
Data set [5] can be described thus: Metabolic stability in human liver microsomes assessed as half life incubated upto 60 mins in presence of NADPH by LC-MS/MS analysis. The format is ADME, Microsome. (In general: Liver microsomes are a subcellular fraction often used to study metabolism.)
The nature of data set [6]: Metabolic stability in mouse liver microsomes assessed as half life incubated upto 60 mins in presence of NADPH by LC-MS/MS analysis. It counts as ADME, Microsome.
Data set [7] can be described thus: Equilibrium solubility of compound in PBS at pH 2 incubated for 2 to 5 days by HPLC analysis. The format is physicochemical. The settings on record: PBS, time 2-5 day.
Data set [8] is described as follows: Equilibrium solubility of compound in PBS at pH 7 incubated for 2 to 5 days by HPLC analysis. It counts as physicochemical. Particulars: time 2-5 day.
A short description of data set [9]: Equilibrium solubility of compound in SGF at pH 1 using crystalline form incubated for 2 to 5 days by HPLC analysis. The settings on record: time 2-5 day. It counts as ADME.
Data set [10] is described as follows: Equilibrium solubility of compound in FaSSIF at pH 6.5 using crystalline form incubated for 2 to 5 days by HPLC analysis. It counts as ADME. Particulars: time 2-5 day.
Data set [11] is described as follows: Plasma protein binding in human at 1 uM incubated for 6.5 hrs by LC-MS/MS analysis. The format is ADME, cell-free. The settings on record: read-out: PPB (converted).
Data set [12] is described as follows: Plasma protein binding in C57BL mouse at 1 uM incubated for 6.5 hrs by LC-MS/MS analysis. It counts as ADME, cell-free. The settings on record: read-out: PPB (converted).
Data set [13] in a line: Volume of distribution at steady state in C57BL mouse at 2 mg/kg,iv measured upto 24 hrs by LC-MS/MS analysis. The format is ADME, organism-based. Particulars: in vivo, read-out: Vdss.
A short description of data set [14]: Half life in C57BL mouse at 2 mg/kg,iv measured upto 24 hrs by LC-MS/MS analysis. The format is ADME, organism-based. Particulars: in vivo.
Data set [15] in a line: Cmax in C57BL mouse at […] measured upto 24 hrs by LC-MS/MS analysis. The format is ADME, organism-based. The settings on record: in vivo.
Data set [16] is described as follows: Tmax in C57BL mouse at […] measured upto 24 hrs by LC-MS/MS analysis. The format is ADME, organism-based. The settings on record: in vivo.
Data set [17] in a line: AUC (0 to infinity) in C57BL mouse at 2 mg/kg,iv measured upto 24 hrs by LC-MS/MS analysis. Particulars: in vivo. It counts as ADME, organism-based.
Data set [18] in a line: Oral bioavailability in C57BL mouse at 10 mg/kg measured upto 24 hrs by LC-MS/MS analysis. The format is ADME, organism-based. The settings on record: in vivo.
Data set [19] has as its system MOLM-13. Kind of data set: Antitumor activity against human MOLM-13 cells xenografted in NSG mouse assessed as tumor growth inhibition at 0.625 to 2.5 mg/kg,po administrated for 21 days relative to control. It counts as functional. Particulars: dose 0.625-2.5 mg/kg, time 21 day.

Take `CCn1c(CO)nn(-c2cc3c(C(C)C)cn(-c4c(F)cccc4Cl)c(=O)c3cc2F)c1=O`: the Activity result in data set [1] is “Dose-Dependent Effect”. Further, the IC50 (usually the point on the concentration scale where inhibition reaches its midpoint) in data set [2] stood at 0.22 nM. For the same compound, the Papp A→B (usually the apparent permeability from the apical to the basolateral side of a cell layer) in data set [3] was 24.5 ×10⁻⁶ cm/s. In addition, the logD (commonly lipophilicity at a set pH, counting ionised and neutral species) in data set [4] is 3.1. Moreover, the figures for the half-life in data set [5], in data set [6] and in data set [14] were over 3 h, over 3 h and 5.1 h, respectively. Moreover, the thermodynamic solubility – broadly, the concentration in solution at equilibrium with solid – in [7] was under 4 µM; in data set [8], under 4 µM; in data set [9] it was under 5 µg/mL; in data set [10], under 5 µg/mL. Besides, the fraction unbound at 6.5 h, 1 µM in [11] was 0.042; in data set [12], 0.024. In data set [13], the Vd came to 1.3 L/kg. Further, the Cmax (as a rule, the highest concentration seen after dosing) in data set [15] is 8200 ng/mL. In data set [16], the Tmax (usually the time at which the peak concentration occurs) was determined as 0.83 h. In [17], the exposure (AUC) – broadly, the area under the concentration-time curve, a measure of exposure – came out at 71800 ng·h/mL. Moreover, the bioavailability in [18] was found to be 135%. In addition, the TGI – broadly, the reduction of tumour growth relative to the control group – in data set [19] is over 80%.
